Patent US20040162345A1, “Compounds with NEP/MP-inhibitory activity and uses thereof” (Solvay Pharmaceuticals GmbH, priority 2001, published 2004)
Entries after “also recorded” stand apart in the source; their conditions may differ. Marks after values point to notes of the source that are not given here. No end group written: not given here.

Tests used:
IGS5 polypeptide = molecular target: T1, IGS5 polypeptide (Homo sapiens, UniProt Q495T6); test: Hydrolysis of vasoactive peptides by IGS5 polypeptides; assay type: biochemical; details: 0.5 μM substrate, 2 h, 37° C.
T1 construct: Enzyme: IGS-5 (sol hu)(his)6; or: His6-tagged IGS5 ectodomain;; made in house; host or cells: Sf9 insect cells, recombinant baculovirus IGBV73, purified from culture supernatant
T1 sequence (Q495T6 49-779 limits assumed): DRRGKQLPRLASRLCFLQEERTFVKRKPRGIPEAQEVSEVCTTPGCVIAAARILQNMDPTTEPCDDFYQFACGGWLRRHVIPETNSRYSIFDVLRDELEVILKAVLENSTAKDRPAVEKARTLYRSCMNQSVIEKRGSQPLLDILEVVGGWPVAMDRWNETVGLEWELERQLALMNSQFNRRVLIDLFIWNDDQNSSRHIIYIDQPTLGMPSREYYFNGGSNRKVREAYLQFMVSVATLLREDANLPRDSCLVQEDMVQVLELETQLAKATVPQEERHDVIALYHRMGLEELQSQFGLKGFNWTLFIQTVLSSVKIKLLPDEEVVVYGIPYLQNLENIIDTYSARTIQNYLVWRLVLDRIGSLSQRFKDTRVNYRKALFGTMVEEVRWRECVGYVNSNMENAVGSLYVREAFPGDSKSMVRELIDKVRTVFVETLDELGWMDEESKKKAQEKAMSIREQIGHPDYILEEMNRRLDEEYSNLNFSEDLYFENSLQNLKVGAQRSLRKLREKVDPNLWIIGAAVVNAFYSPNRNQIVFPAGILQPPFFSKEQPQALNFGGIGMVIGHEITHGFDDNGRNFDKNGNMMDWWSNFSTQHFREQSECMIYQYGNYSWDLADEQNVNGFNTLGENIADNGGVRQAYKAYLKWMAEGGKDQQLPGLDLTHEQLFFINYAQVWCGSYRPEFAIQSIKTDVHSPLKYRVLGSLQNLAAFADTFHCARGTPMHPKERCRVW
Procedure: (§1) The enzymatic activity of IGS5 polypeptides of the invention was tested with regard to the metabolism of biologically active peptides. In particular it was tested whether these IGS5 polypeptides may act on a variety of vasoactive peptides known in the state of the art e.g. such like atrial natriuretic peptide (ANP), bradykinin, big-endothelin (big-ET-1), endothelin (ET-1), substance P and angiotensin-1. In the context of the present invention in particular it was tested whether the IGS5 ectodomain, which is a novel human metalloprotease, hydrolyzes said vasoactive peptides. For comparison the assay was also performed for a known member of the metalloprotease family which was described earlier as soluble secreted endopeptidase (SEP) by Emoto et al. (J. Biol. Chem., Vol. 274 (1999): pp. 32469-32477). Furthermore, it was tested whether the activity of IGS5 to convert a big-ET-1 analog (the so-called 17 aa big-ET-1) may be inhibited by reference compounds that are used to determine the inhibition properties with regard to enzymes having ECE and/or NEP-characteristics.

[1] = molecular target: T2, SEP (soluble secreted endopeptidase) (Mus musculus, UniProt Q9JLI3); details: 10 μg SEP; 0.5 μM substrate; 12 h, 37° C.; cited from earlier work
T2 sequence (Q9JLI3 63-765 limits assumed): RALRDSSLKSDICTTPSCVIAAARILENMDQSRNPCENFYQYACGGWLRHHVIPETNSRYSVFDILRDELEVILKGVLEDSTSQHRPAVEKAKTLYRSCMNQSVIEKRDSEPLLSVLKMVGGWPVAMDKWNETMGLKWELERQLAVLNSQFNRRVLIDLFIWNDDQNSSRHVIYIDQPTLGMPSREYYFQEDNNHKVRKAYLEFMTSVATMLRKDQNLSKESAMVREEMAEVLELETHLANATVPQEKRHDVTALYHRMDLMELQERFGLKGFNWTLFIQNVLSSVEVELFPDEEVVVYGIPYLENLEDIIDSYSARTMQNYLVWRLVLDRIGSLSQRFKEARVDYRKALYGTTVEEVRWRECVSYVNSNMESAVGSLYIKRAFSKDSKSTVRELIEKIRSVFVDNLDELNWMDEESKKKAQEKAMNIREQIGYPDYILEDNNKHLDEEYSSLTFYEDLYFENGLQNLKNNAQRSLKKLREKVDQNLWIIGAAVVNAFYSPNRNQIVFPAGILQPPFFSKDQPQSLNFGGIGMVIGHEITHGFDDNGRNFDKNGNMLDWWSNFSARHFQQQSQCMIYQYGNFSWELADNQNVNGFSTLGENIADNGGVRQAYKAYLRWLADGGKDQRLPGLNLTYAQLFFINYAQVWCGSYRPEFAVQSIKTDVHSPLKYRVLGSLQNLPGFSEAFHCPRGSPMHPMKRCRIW

[2] = molecular target: T3, His6-tagged IGS5 ectodomain (Homo sapiens, UniProt Q495T6); test: IGS5 enzyme inhibition assay (fluorescence-quenched big-ET-1 analog, HPLC); assay type: biochemical
T3 construct: Enzyme: IGS-5 (sol hu)(his)6; or: His6-tagged IGS5 ectodomain;; made in house; host or cells: Sf9 insect cells, recombinant baculovirus IGBV73, purified from culture supernatant
T3 sequence (Q495T6 49-779 limits assumed): T1 sequence (Q495T6 49-779 limits assumed)
Procedure: as §1
Enzyme: IGS-5 (sol hu)(his)6; or: His6-tagged IGS5 ectodomain;
stock solution: 53 μg/ml in 20 mM HEPES pH 7.2, 5% glycerol, 0.005% Tween20, 100 mM NaCl, purity >99%; storage at 4° C.
working solution: stock solution diluted with assay buffer to 10 μg/ml.
Substrate: Mca-Asp-Ile-Ala-Trp-Phe-Dpa-[…]COOH;
Fluorescence-quenched big-ET-1 analog;
Assay buffer: 100 mM Tris pH 7.0, 250 mM NaCl.
All test compounds were dissolved in DMSO at 10 mM and were further diluted with assay buffer.
A quantity of 70 μl of the assay buffer, of 10 μl enzyme working solution and of 10 μl test compound solution were mixed in an Eppendorf vial and preincubated at 37° C. for 15 minutes. Then, 10 μl substrate stock solution was added and the reaction mixture was incubated at 37° C. for 60 minutes to allow for enzymatic hydrolysis. Subsequently the enzymatic reaction was terminated by heating at 95° C. for 5 minutes. After centrifugation (Heraeus Biofuge B, 3 min) the supernatant was subjected to HPLC analysis.
In order to separate the remaining substrate from the cleavage products reversed phase HPLC technique was used with a CC 125/4 Nucleosil 300/5 C18 RP column and a CC 8/4 Nucleosil 100/5 C18 precolumn (commercially available from Macherey-Nagel, Düren, Germany). Thus, 60 μl of the reaction samples obtained in Example 7b were injected into the HPLC, and the column was eluted at a flow rate of 1 ml/min by applying the following gradient and solutions: […]
The increasing fluorescence signal of the HPLC-peak of the peptide with the unquenched Mca-fluorophor after hydrolysis was taken as the basis for any calculation.
This signal was compared for the samples with and without inhibitor and % inhibition was calculated on basis of the respective peak areas.
% inhib=100*(1−Ainhib/Acontrol)
All samples were run in duplicate and mean values were used.
Furthermore, the potency of metalloprotease inhibitor compounds and reference compounds to suppress the conversion of big-ET to ET-1 was examined as described in this example 7, using a labeled fluorescent big-ET-1 analog. The procedures applied in the enzyme assays are described above in the examples 4 with regard to IGS5, in example 5 with regard to NEP, and in example 6 with regard to ECE.

[3] = tested on: patients with congestive heart failure; test: Open, baseline controlled pilot trial in patients with congestive heart failure; assay type: in vivo, human; details: following compound Ia-2 administration; p<0.001
Procedure: To proof the concept of clinical efficacy and safety of compound Ia-2 in man, 6 clinical trials were conducted in healthy volunteers and 2 proof of concept trials were conducted in patients: One randomized, placebo-controlled double-blind trial in patients with hypertension (N=191) and one open, baseline controlled pilot trial in patients with congestive heart failure (N=29). […] In the Intent-to-treat patient population (ITT), office diastolic blood pressure versus placebo decreased by −6.9 mmHg (last value under treatment; p<0.001) and office systolic blood pressure versus placebo decreased by −9.2 mmHg (last value under treatment; p=0.003) at the highest dose investigated (200 mg bid).

CC[C@H](C)[C@H](NC(=O)[C@H](CC(=O)O)NC(=O)[C@H](CC(C)C)NC(=O)[C@H](Cc1c[nH]cn1)NC(=O)[C@@H]1CSSC[C@H](N)C(=O)N[C@@H](CO)C(=O)N[C@H]2CSSC[C@H](NC(=O)[C@H](CCC(=O)O)NC(=O)[C@H](CCCCN)NC(=O)[C@H](CC(=O)O)NC(=O)[C@H](CCSC)NC(=O)[C@H](CC(C)C)NC(=O)[C@H](CO)NC(=O)[C@H](CO)NC2=O)C(=O)N[C@@H](C(C)C)C(=O)N[C@@H](Cc2ccc(O)cc2)C(=O)N[C@@H](Cc2ccccc2)C(=O)N1)C(=O)N[C@H](C(=O)N[C@@H](Cc1c[nH]c2ccccc12)C(=O)O)[C@@H](C)CC [ET-1]
% Hydrolysis by IGS5 Polypeptide (IGS5 polypeptide; 100 μg IGS5 polypeptide): <30%
% Hydrolysis by SEP (Emoto et al.) [1]: 92%

CC[C@H](C)[C@@H]1NC(=O)[C@H](CCCNC(=N)N)NC(=O)[C@H](CC(=O)O)NC(=O)[C@H](CCSC)NC(=O)[C@H](CCCNC(=N)N)NC(=O)CNC(=O)CNC(=O)[C@H](Cc2ccccc2)NC(=O)[C@@H](NC(=O)[C@H](CO)NC(=O)[C@H](CO)NC(=O)[C@H](CCCNC(=N)N)NC(=O)[C@H](CCCNC(=N)N)NC(=O)[C@H](CC(C)C)NC(=O)[C@@H](N)CO)CSSC[C@@H](C(=O)N[C@@H](CC(N)=O)C(=O)N[C@@H](CO)C(=O)N[C@@H](Cc2ccccc2)C(=O)N[C@@H](CCCNC(=N)N)C(=O)N[C@@H](Cc2ccc(O)cc2)C(=O)O)NC(=O)CNC(=O)[C@H](CC(C)C)NC(=O)CNC(=O)[C@H](CO)NC(=O)[C@H](CCC(N)=O)NC(=O)[C@H](C)NC(=O)CNC1=O [ANP]
% Hydrolysis by IGS5 Polypeptide (IGS5 polypeptide; 100 μg IGS5 polypeptide): 5%
% Hydrolysis by IGS5 Polypeptide (IGS5 polypeptide; 500 μg IGS5 polypeptide): 80%
% Hydrolysis by SEP (Emoto et al.) [1]: >95%

Mca-Asp-Ile-Ala-Trp-Phe-Dpa-Thr-Pro-Glu-His-Val-Val-Pro-Tyr-Gly-Leu-Gly-COOH [17 aa big-ET-1]
% Hydrolysis by IGS5 Polypeptide (IGS5 polypeptide; 100 μg IGS5 polypeptide): 41%

Angiotensin 1: vasoactive peptide tested as substrate (DRVYIHPFHL; Angiotensin-1; UniProt P01019 25-34, looked up)
% Hydrolysis by IGS5 Polypeptide (IGS5 polypeptide; 100 μg IGS5 polypeptide): 15*** %
% Hydrolysis by SEP (Emoto et al.) [1]: >95%

tert-Butyl (3S)-3-(1-benzylethylphosphonomethyl-cyclopentane-1-carbonylamino)-2,3,4,5-tetrahydro-2-oxo-1H-1-benzazepine-1-acetate [compound Ib-8]
IC50 ([2]; conversion of labeled fluorescent big-ET-1 analog): 2.9 nM

Substance P: vasoactive peptide tested as substrate
% Hydrolysis by IGS5 Polypeptide (IGS5 polypeptide; 100 μg IGS5 polypeptide): 100%
% Hydrolysis by SEP (Emoto et al.) [1]: >95%

RPPGFSPFR [Bradykinin]
% Hydrolysis by IGS5 Polypeptide (IGS5 polypeptide; 10 μg IGS5 polypeptide): 62%
% Hydrolysis by IGS5 Polypeptide (IGS5 polypeptide; 100 μg IGS5 polypeptide): 100%

Cc1nn(-c2ccccc2)c(NC(=O)NS(=O)(=O)c2ccc(Cl)cc2)c1C#N.[Na]
inhibition of IGS5 activity (in words) ([2]; monosodium salt): no inhibition of IGS5; also recorded: do not affect the activity of IGS5

O=C(O)CN1C(=O)[C@@H](NC(=O)C2(C[C@@H](CCc3ccccc3)C(=O)O)CCCC2)CCc2ccccc21 [compound Ia-1, (3S,2′R)-3-{1-[2′-carboxy-4′-phenylbutyl]-cyclopentane-1-carbonylamino}-2,3,4,5-tetrahydro-2-oxo-1H-1-benzazepine-1-acetic acid]
correlation between log plasma concentrations of compound Ia-1 and plasma levels of big-ET [3]: significant positive correlation
